This note sets out measurements from article PMC2248166, “Quantitative peptide binding motifs for 19 human and mouse MHC class I molecules derived using positional scanning combinatorial peptide libraries” (Immunome Research, 2008).

Where a SMILES comes first, the peptide text is derived from it.

As a reminder, the IC50 is the concentration that inhibits the measured activity by half. Higher therefore signals weaker potency.

This test deals with HLA B*1503 (Homo sapiens, UniProt P01889, A329T/A93T/A95T/C349S/D201E/D98Y/E187L/E204Q/K202T/N87E/Q94N/R155S/R180L/S121R/S35A/V306I/V36M/Y140S/Y91S). As to the kind of experiment: biochemical. Format: binding.

For `CC(C)[C@H](NC(=O)[C@H](Cc1ccccc1)NC(=O)[C@H](Cc1c[nH]cn1)NC(=O)[C@H](CCC(N)=O)NC(=O)[C@@H](N)Cc1ccc(O)cc1)C(=O)N[C@@H](C)C(=O)N[C@@H](CCCNC(=N)N)C(=O)N[C@H](C(=O)N[C@@H](Cc1ccccc1)C(=O)O)C(C)C` [3102.1278] (H-YQHFVARVF-OH), the IC50 was determined as 0.4 nM. This lies in the sub-nanomolar range. As for `CSCC[C@H](NC(=O)[C@H](CC(C)C)NC(=O)[C@H](CCSC)NC(=O)[C@@H](N)Cc1ccccc1)C(=O)N[C@@H](CCC(=O)O)C(=O)N[C@H](C(=O)N[C@@H](CCSC)C(=O)N[C@@H](Cc1ccccc1)C(=O)N[C@@H](Cc1ccccc1)C(=O)O)[C@@H](C)O` [3102.1089] (H-FMLMETMFF-OH), the midpoint of inhibition, the IC50, lay at 0.19 nM. In turn, `CC[C@H](C)[C@H](NC(=O)[C@H](CCSC)NC(=O)[C@H](C)NC(=O)[C@H](C)NC(=O)[C@@H](N)Cc1ccccc1)C(=O)N[C@H](C(=O)N[C@@H](CCCNC(=N)N)C(=O)N[C@@H](CO)C(=O)N[C@@H](Cc1ccccc1)C(=O)O)[C@@H](C)CC` [3102.1048] (H-FAAMIIRSF-OH) registered an IC50 of 1.3 nM. The figure for `CC[C@H](C)[C@H](NC(=O)[C@H](CO)NC(=O)[C@@H](NC(=O)[C@H](C)NC(=O)[C@H](CC(C)C)NC(=O)[C@H](CC(N)=O)NC(=O)[C@H](CCCCN)NC(=O)[C@@H](N)Cc1ccccc1)[C@@H](C)O)C(=O)N[C@@H](Cc1ccc(O)cc1)C(=O)O` [3102.1297] (H-FKNLATSIY-OH) is 1.6 nM; for `CC(C)C[C@H](N)C(=O)N[C@@H](CCCCN)C(=O)N[C@H](C(=O)N[C@H](C(=O)N[C@@H](Cc1ccccc1)C(=O)N[C@H](C(=O)N[C@@H](Cc1c[nH]cn1)C(=O)N1CCC[C@H]1C(=O)N[C@@H](Cc1ccccc1)C(=O)O)C(C)C)[C@@H](C)O)[C@@H](C)O` [3102.1294] (H-LKTTFVHPF-OH) it is 1.3 nM. In turn, `CC[C@H](C)[C@H](NC(=O)[C@H](CS)NC(=O)[C@@H](NC(=O)[C@H](CC(N)=O)NC(=O)[C@@H]1CCCN1C(=O)[C@H](Cc1ccc(O)cc1)NC(=O)[C@H](CC(C)C)NC(=O)[C@@H](N)CO)C(C)C)C(=O)N[C@@H](Cc1ccccc1)C(=O)O` [3102.1246] (H-SLYPNVCIF-OH) yielded an IC50 of 4.9 nM. The figure for `CC[C@H](C)[C@H](NC(=O)[C@H](CCCCN)NC(=O)[C@@H](N)CCCNC(=N)N)C(=O)N[C@@H](CO)C(=O)N[C@@H](CO)C(=O)N[C@@H](CCCCN)C(=O)N[C@@H](CC(N)=O)C(=O)N[C@@H](CO)C(=O)N[C@@H](CCSC)C(=O)O` [3102.1080] (H-RKISSKNSM-OH) is 0.11 nM. `CC[C@H](C)[C@H](NC(=O)[C@H](CC(N)=O)NC(=O)[C@@H](NC(=O)[C@H](Cc1ccccc1)NC(=O)[C@H](CO)NC(=O)[C@@H](NC(=O)[C@H](CO)NC(=O)[C@@H](N)Cc1c[nH]c2ccccc12)[C@@H](C)O)[C@@H](C)O)C(=O)N[C@@H](Cc1ccccc1)C(=O)O` [3102.1342] (H-WSTSFTNIF-OH) yielded an IC50 of 5.9 nM. The figure for `CC[C@H](C)[C@H](NC(=O)[C@@H](NC(=O)[C@H](CCC(=O)O)NC(=O)[C@H](Cc1ccccc1)NC(=O)[C@H](Cc1ccccc1)NC(=O)[C@H](CCCCN)NC(=O)[C@@H](N)CC(N)=O)C(C)C)C(=O)N[C@@H](Cc1ccccc1)C(=O)N[C@@H](Cc1ccccc1)C(=O)O` [3102.1109] (H-NKFFEVIFF-OH) is 19 nM; for `CSCC[C@H](NC(=O)[C@@H](N)CCCNC(=N)N)C(=O)N[C@@H](Cc1ccccc1)C(=O)NCC(=O)N[C@@H](CO)C(=O)N[C@@H](CCCCN)C(=O)N1CCC[C@H]1C(=O)N[C@H](C(=O)N[C@@H](Cc1ccccc1)C(=O)O)[C@@H](C)O` [3102.1247] (H-RMFGSKPTF-OH) it is 0.21 nM. `CC[C@H](C)[C@H](N)C(=O)N[C@@H](CC(C)C)C(=O)N[C@@H](C)C(=O)N1CCC[C@H]1C(=O)N[C@@H](CC(N)=O)C(=O)N1CCC[C@H]1C(=O)N[C@@H](CC(N)=O)C(=O)N[C@@H](CCCNC(=N)N)C(=O)N[C@@H](Cc1ccccc1)C(=O)O` [3102.1221] (H-ILAPNPNRF-OH) had an IC50 of 26 nM. The figure for `CC[C@H](C)[C@H](NC(=O)[C@H](Cc1ccccc1)NC(=O)[C@H](CCC(=O)O)NC(=O)[C@H](Cc1ccccc1)NC(=O)[C@H](C)NC(=O)[C@H](C)N)C(=O)N[C@@H](CC(N)=O)C(=O)N[C@@H](CO)C(=O)N[C@@H](CC(C)C)C(=O)O` [3102.1324] (H-AAFEFINSL-OH) is 4.6 nM.

`CC[C@H](C)[C@H](N)C(=O)N[C@@H](CO)C(=O)N[C@H](C(=O)N[C@@H](Cc1ccc(O)cc1)C(=O)N1CCC[C@H]1C(=O)NCC(=O)N[C@@H](CC(N)=O)C(=O)N[C@H](C(=O)N[C@@H](Cc1ccccc1)C(=O)O)[C@@H](C)O)[C@@H](C)O` [3102.1229] (H-ISTYPGNTF-OH) gave an IC50 of 0.48 nM. The figure for `CC[C@H](C)[C@H](NC(=O)[C@H](CO)NC(=O)[C@H](C)NC(=O)[C@H](Cc1ccccc1)NC(=O)[C@H](CO)NC(=O)CNC(=O)[C@H](CO)NC(=O)[C@@H](N)Cc1ccccc1)C(=O)N[C@@H](Cc1ccccc1)C(=O)O` [3102.1222] (H-FSGSFASIF-OH) is 0.32 nM. The figure for `CC(C)[C@H](NC(=O)[C@@H](NC(=O)[C@H](C)NC(=O)[C@H](Cc1ccc(O)cc1)NC(=O)[C@@H](NC(=O)[C@H](C)NC(=O)[C@@H](N)CO)[C@@H](C)O)[C@@H](C)O)C(=O)N1CCC[C@H]1C(=O)N[C@@H](Cc1ccccc1)C(=O)O` [3102.1306] (H-SATYATVPF-OH) is 12 nM. Turning to `CC(C)[C@H](NC(=O)[C@H](CC(=O)O)NC(=O)[C@H](CCC(=O)O)NC(=O)[C@@H](NC(=O)[C@H](CO)NC(=O)[C@@H](N)CCCCN)C(C)C)C(=O)N[C@@H](CO)C(=O)N[C@@H](C)C(=O)N[C@@H](Cc1ccccc1)C(=O)O` [3102.1062] (H-KSVEDVSAF-OH), the IC50 amounted to 14 nM.

Turning to `CSCC[C@H](NC(=O)[C@H](C)NC(=O)[C@H](CCCCN)NC(=O)[C@@H](N)Cc1ccccc1)C(=O)N[C@@H](Cc1c[nH]c2ccccc12)C(=O)N[C@@H](CCCCN)C(=O)N[C@@H](Cc1ccc(O)cc1)C(=O)N1CCC[C@H]1C(=O)N[C@@H](Cc1ccccc1)C(=O)O` [3102.1182] (H-FKAMWKYPF-OH), 0.11 nM corresponded to half-maximal inhibition (IC50).

`CSCC[C@H](NC(=O)[C@H](CC(N)=O)NC(=O)CNC(=O)[C@H](CS)NC(=O)CNC(=O)[C@H](Cc1ccc(O)cc1)NC(=O)[C@H](CCCCN)NC(=O)[C@@H](N)CCCNC(=N)N)C(=O)N[C@@H](Cc1ccccc1)C(=O)O` [3102.1308] (H-RKYGCGNMF-OH): 1.3 nM corresponded to half-maximal inhibition (IC50). Consider `CC[C@H](C)[C@H](N)C(=O)N[C@@H](CCC(N)=O)C(=O)N[C@@H](Cc1c[nH]cn1)C(=O)N[C@@H](CC(N)=O)C(=O)N[C@@H](Cc1ccccc1)C(=O)N[C@H](C(=O)N[C@@H](CCC(N)=O)C(=O)N[C@H](C(=O)N[C@@H](C)C(=O)O)[C@@H](C)CC)[C@@H](C)O` [3102.1181] (H-IQHNFTQIA-OH), for which the IC50 amounted to 0.25 nM. The figure for `CSCC[C@H](NC(=O)[C@H](C)N)C(=O)N[C@@H](CCCCN)C(=O)N[C@H](C(=O)N[C@@H](CC(=O)O)C(=O)N[C@@H](C)C(=O)N[C@@H](CC(N)=O)C(=O)N[C@@H](Cc1ccc(O)cc1)C(=O)N[C@@H](Cc1ccccc1)C(=O)O)C(C)C` [3102.1268] (H-AMKVDANYF-OH) is 0.15 nM; for `N=C(N)NCCC[C@H](NC(=O)[C@H](CC(=O)O)NC(=O)[C@H](CCCCN)NC(=O)[C@H](CCC(=O)O)NC(=O)[C@H](Cc1ccccc1)NC(=O)[C@H](CCC(N)=O)NC(=O)[C@@H](N)CCCNC(=N)N)C(=O)N[C@@H](CO)C(=O)N[C@@H](Cc1ccccc1)C(=O)O` [3102.1103] (H-RQFEKDRSF-OH) it is 0.14 nM. The figure for `CC(C)C[C@H](NC(=O)[C@H](CO)NC(=O)[C@H](CS)NC(=O)[C@@H](NC(=O)[C@H](Cc1ccccc1)NC(=O)[C@H](CCC(N)=O)NC(=O)[C@@H](N)CO)[C@@H](C)O)C(=O)N[C@@H](C)C(=O)N[C@H](C(=O)O)C(C)C` [3102.1117] (H-SQFTCSLAV-OH) is 1.5 nM; for `CSCC[C@H](NC(=O)[C@@H](N)CS)C(=O)N[C@@H](CO)C(=O)N[C@@H](CC(N)=O)C(=O)N[C@@H](CO)C(=O)N[C@@H](CCCNC(=N)N)C(=O)N[C@@H](CC(C)C)C(=O)N[C@@H](CO)C(=O)N[C@@H](Cc1ccccc1)C(=O)O` [3102.1225] (H-CMSNSRLSF-OH) it is 1 nM.

`CC(C)C[C@H](NC(=O)[C@@H](N)Cc1ccccc1)C(=O)N[C@@H](CO)C(=O)N[C@@H](CCC(=O)O)C(=O)N1CCC[C@H]1C(=O)N[C@@H](Cc1ccc(O)cc1)C(=O)N[C@@H](CO)C(=O)N[C@@H](Cc1ccc(O)cc1)C(=O)N[C@@H](Cc1ccccc1)C(=O)O` [3102.1270] (H-FLSEPYSYF-OH): the IC50 came out at 29 nM. `CC[C@H](C)[C@H](N)C(=O)N[C@@H](CCCCN)C(=O)N[C@H](C(=O)N[C@@H](CCSC)C(=O)N[C@@H](CCSC)C(=O)N[C@H](C(=O)N[C@@H](CC(N)=O)C(=O)N1CCC[C@H]1C(=O)N[C@@H](Cc1ccccc1)C(=O)O)[C@@H](C)CC)[C@@H](C)O` [3102.1325] (H-IKTMMINPF-OH) showed an IC50 of 0.19 nM. The figure for `CC(C)C[C@H](NC(=O)[C@H](Cc1c[nH]c2ccccc12)NC(=O)[C@H](CCCCN)NC(=O)[C@H](C)NC(=O)[C@H](CCCCN)NC(=O)[C@@H](N)Cc1ccccc1)C(=O)N[C@H](C(=O)N1CCC[C@H]1C(=O)N[C@@H](Cc1ccccc1)C(=O)O)[C@@H](C)O` [3102.1174] (H-FKAKWLTPF-OH) is 0.073 nM. In turn, `CC[C@H](C)[C@H](N)C(=O)N[C@@H](CCC(N)=O)C(=O)N[C@H](C(=O)N[C@@H](CC(C)C)C(=O)N[C@@H](CC(N)=O)C(=O)NCC(=O)N[C@@H](CCCCN)C(=O)N[C@@H](Cc1c[nH]cn1)C(=O)N[C@@H](Cc1ccccc1)C(=O)O)[C@@H](C)O` [3102.1105] (H-IQTLNGKHF-OH) displayed an IC50 of 11 nM. The figure for `CC[C@H](C)[C@H](NC(=O)[C@H](CC(N)=O)NC(=O)[C@H](CCSC)NC(=O)[C@@H](NC(=O)[C@H](CCSC)NC(=O)[C@@H](N)CC(C)C)[C@@H](C)O)C(=O)N[C@H](C(=O)N[C@@H](CC(N)=O)C(=O)N[C@@H](Cc1ccccc1)C(=O)O)C(C)C` [3102.1344] (H-LMTMNIVNF-OH) is 17 nM.
